According to ChEMBL document CHEMBL2401704, “Inhibition of rhodesain as a novel therapeutic modality for human African trypanosomiasis” (J Med Chem, 2013):
Residues, ends and D or L forms follow the SMILES beside them. *: point of attachment. Cbz = O=C(OCc1ccccc1)*; CH2Cl = ClC*

Experiments:
[1] = Inhibition of Trypanosoma brucei recombinant rhodesain
Trypanosoma brucei [2] = test: Antitrypanosomal activity against Trypanosoma brucei; type: functional, organism-based
[3] = Inhibition of Trypanosoma brucei rhodesain
[4] = test system: Trypanosoma brucei brucei; test: Antitrypanosomal activity against Trypanosoma brucei brucei; type: functional, organism-based
[5] = Inhibition of Plasmodium falciparum Falcipain 2
[6] = test system: Trypanosoma brucei brucei; test: Antitrypanosomal activity against blood stream form of Trypanosoma brucei brucei; type: functional, organism-based
Trypsin = Trypsin (Homo sapiens, UniProt P07477+P07478+P35030); test: Inhibition of trypsin (unknown origin); type: protein assay
[7] = Inhibition of cathepsin B (unknown origin); set-up: species or system Homo sapiens
Papain = target: T1, Papain (Carica papaya, UniProt P00784); test: Inhibition of papaya papain
T1 sequence (P00784 whole entry): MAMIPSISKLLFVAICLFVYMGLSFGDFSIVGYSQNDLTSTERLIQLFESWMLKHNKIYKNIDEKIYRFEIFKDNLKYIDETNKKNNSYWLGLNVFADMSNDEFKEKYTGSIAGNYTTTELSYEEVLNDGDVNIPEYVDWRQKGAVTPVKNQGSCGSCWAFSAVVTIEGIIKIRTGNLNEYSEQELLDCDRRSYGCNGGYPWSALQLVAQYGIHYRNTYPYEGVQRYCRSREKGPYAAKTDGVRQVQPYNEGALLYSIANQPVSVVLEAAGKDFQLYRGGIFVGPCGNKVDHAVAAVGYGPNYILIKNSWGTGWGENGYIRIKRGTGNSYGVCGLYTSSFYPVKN

Cruzipain = Cruzipain (Trypanosoma cruzi, UniProt P25779); test: Inhibition of Trypanosoma cruzi cruzain
Sequence of Cruzipain (P25779 whole entry): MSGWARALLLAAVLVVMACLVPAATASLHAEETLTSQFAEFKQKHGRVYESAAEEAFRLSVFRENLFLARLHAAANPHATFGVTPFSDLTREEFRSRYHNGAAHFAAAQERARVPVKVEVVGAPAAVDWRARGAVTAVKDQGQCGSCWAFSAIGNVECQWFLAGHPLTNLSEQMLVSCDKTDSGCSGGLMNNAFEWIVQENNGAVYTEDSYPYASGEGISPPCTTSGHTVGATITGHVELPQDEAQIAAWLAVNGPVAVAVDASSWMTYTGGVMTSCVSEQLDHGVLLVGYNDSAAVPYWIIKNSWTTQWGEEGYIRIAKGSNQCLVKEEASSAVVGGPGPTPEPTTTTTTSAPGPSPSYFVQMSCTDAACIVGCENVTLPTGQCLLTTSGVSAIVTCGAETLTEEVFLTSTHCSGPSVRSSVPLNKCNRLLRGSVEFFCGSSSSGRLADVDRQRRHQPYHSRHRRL

L6 = test: Cytotoxicity against rat L6 cells; type: cell-based
Plasmodium falciparum = test: Antiprotozoal activity against Plasmodium falciparum; type: functional, organism-based
[8] = test system: Trypanosoma brucei rhodesiense; test: Antitrypanosomal activity against Trypanosoma brucei rhodesiense; type: functional, organism-based
Rhodesain = Rhodesain (Trypanosoma brucei rhodesiense, UniProt Q95PM0); test: Inhibition of Trypanosoma brucei rhodesiense rhodesain
Sequence of Rhodesain (Q95PM0 whole entry): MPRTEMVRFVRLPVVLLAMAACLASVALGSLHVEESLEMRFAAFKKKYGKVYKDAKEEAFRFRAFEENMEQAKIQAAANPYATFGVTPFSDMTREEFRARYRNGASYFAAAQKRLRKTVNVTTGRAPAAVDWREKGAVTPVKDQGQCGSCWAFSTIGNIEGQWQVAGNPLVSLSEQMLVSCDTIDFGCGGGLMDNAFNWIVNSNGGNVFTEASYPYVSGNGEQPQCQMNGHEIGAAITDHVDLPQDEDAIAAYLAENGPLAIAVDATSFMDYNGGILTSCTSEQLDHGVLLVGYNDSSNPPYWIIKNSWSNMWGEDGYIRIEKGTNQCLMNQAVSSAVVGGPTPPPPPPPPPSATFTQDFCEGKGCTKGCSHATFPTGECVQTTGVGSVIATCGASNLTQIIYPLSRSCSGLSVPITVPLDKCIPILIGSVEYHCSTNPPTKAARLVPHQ

[9] = test system: Trypanosoma brucei brucei; test: Antitrypanosomal activity against procyclic form of Trypanosoma brucei brucei; type: functional; conditions: read-out: ED50 (the source's name)
Trypanosoma brucei [10] = test: Inhibition of Trypanosoma brucei rhodesain assessed as second order rate constant

## CN(C#N)N(C)C(=O)[C@H](Cc1ccccc1)NC(=O)c1ccc2c(c1)OCCO2
[1]
  IC50: 0.14 nM

## CCCCCN(C#N)N(C)C(=O)[C@@H](NC(=O)c1ccc2c(c1)OCCO2)C(C)C
[1]
  IC50: 54.6 nM

## C/C(=N\N=C(\N)S)c1ccc(-c2ccccc2)cc1
Trypanosoma brucei [2]
  IC50: 10000 nM
[3]
  IC50: 90 nM

## C/C(=N\N=C(/S)N1CCCCC1)c1cccc(Br)c1
Trypanosoma brucei [2]
  IC50: 3000 nM
[3]
  IC50: 4000 nM

## CS/C(S)=N/N=C(\C)c1ccccn1
Trypanosoma brucei [2]
  IC50: 300 nM
[3]
  IC50: > 20000 nM

## N=C(NC(=O)OCc1ccccc1)NC(=O)c1ccc(C(=O)NCc2ccccc2)[nH]1
[4]
  IC50: 9170 nM
[5]
  Ki: 7810 nM
[3]
  Ki: 50 nM

## C/C(=N\N=C(\N)S)c1ccc(Nc2ccccc2)cc1
Trypanosoma brucei [2]
  IC50: 4500 nM
[3]
  IC50: 18000 nM

## O=C(N[C@@H](Cc1ccccc1)C(=O)N[C@@H](Cc1ccccc1)C(=O)CCl)OCc1ccccc1 (Cbz-Phe-Phe-CH2Cl)
[6]
  IC50: 3600 nM

## C[C@H](NC(=O)[C@H](Cc1ccccc1)NC(=O)OCc1ccccc1)C(=O)CCl
[6]
  IC50: 21000 nM

## CC(C)C[C@H](NC(=O)c1ccc2c(c1)OCCO2)C(=O)N(C)N(C#N)Cc1ccccc1
[1]
  IC50: 0.33 nM

## Cn1nc(C(F)(F)F)cc1-c1ccc(NC(=O)Nc2cccc(C(F)(F)F)c2)s1
[3]
  IC50: 3000 nM
Trypsin
  IC50: > 50000 nM
[7]
  IC50: 11000 nM
Papain
  IC50: > 50000 nM
Cruzipain
  IC50: 3100 nM

## CC(C)[C@H](NC(=O)c1ccc2c(c1)OCCO2)C(=O)N(C)N(C#N)CCCc1ccccc1
[1]
  IC50: 54 nM

## N#Cc1nc(N2CCOCC2)nc(N(Cc2ccc3c(c2)OCO3)C2CCCCC2)n1
L6
  IC50: 11100 nM
Plasmodium falciparum
  IC50: 2900 nM
[5]
  Ki: 20 nM
[8]
  IC50: 30100 nM
Rhodesain
  Ki: 8 nM

## C/C(=N\NC(N)=S)c1cccc(/C(C)=N/NC(N)=S)c1
Trypanosoma brucei [2]
  IC50: > 20000 nM
[3]
  IC50: 330 nM

## N=C(NC(=O)OCc1ccccc1)NC(=O)c1ccc(C(=O)NCc2cccc(NC(=O)OCc3ccccc3)c2)[nH]1
[4]
  IC50: 2320 nM
[5]
  Ki: 1620 nM
[3]
  Ki: 100 nM

## NC(=S)/N=N/c1c(O)[nH]c2ccccc12
[3]
  IC50: 3500 nM

## CCCCCN(C#N)N(C)C(=O)[C@H](Cc1ccccc1)NC(=O)OCc1ccccc1
[9]
  EC50: 700 nM
[1]
  IC50: 0.06 nM
[6]; read-out: ED50 (the source's name)
  EC50: 1400 nM

## N/C(S)=N/N=C(\C=C\c1ccccc1)c1ccc(Cl)c(Cl)c1
[8]
  IC50: 72 nM

## CN(C(=O)[C@H](Cc1ccccc1)NC(=O)c1ccc2c(c1)OCCO2)N(C#N)CCc1ccccc1
[1]
  IC50: 1.86 nM

## CN(C#N)N(C)C(=O)[C@H](Cc1ccccc1)NC(=O)OC(C)(C)C
[1]
  IC50: 0.06 nM

## CC(C)C[C@H](NC(=O)N1CCOCC1)C(=O)N[C@H](/C=C/S(=O)(=O)c1ccccc1)CCc1ccccc1
Trypanosoma brucei [10]
  K: 15.8 ×10⁶ /M/min

## O=C(N[C@@H](Cc1ccccc1)C(=O)N[C@H](/C=C/S(=O)(=O)c1ccccc1)CCc1ccccc1)OCc1ccccc1
Trypanosoma brucei [10]
  K: 1.61 ×10⁷ /M/min

## N=C(NC(=O)OCc1ccccc1)NC(=O)c1ccc(C(=O)NCc2ccc(NC(=O)OCc3ccccc3)cc2)[nH]1
[4]
  IC50: > 100000 nM
[5]
  Ki: 870 nM
[3]
  Ki: 28 nM

## N=C(NC(=O)OCc1ccccc1)NC(=O)c1ccc(C(=O)NCc2ccccc2)o1
[5]
  Ki: 2690 nM
[3]
  Ki: 2080 nM

## CCOC(=O)c1ccc(NC(=S)NC(=O)c2ccc(Cl)c(Cl)c2)cc1
[3]
  IC50: 2000 nM
Trypsin
  IC50: > 50000 nM
[7]
  IC50: 10700 nM
Papain
  IC50: > 50000 nM
Cruzipain
  IC50: 1900 nM

## CCCC/C(=N\NC(N)=S)c1ccc(Cl)c(Cl)c1
[8]
  IC50: 130 nM

## CCN(CC)/C(S)=N/N=C(\C)c1cccc(Br)c1
Trypanosoma brucei [2]
  IC50: 3000 nM
[3]
  IC50: 1800 nM

## O=C(Nc1ccc(Cl)cc1)Nc1csc(-c2ccc(C(F)(F)F)cc2)n1
[3]
  IC50: 2000 nM
Trypsin
  IC50: > 50000 nM
[7]
  IC50: 10800 nM
Papain
  IC50: > 50000 nM
Cruzipain
  IC50: 1200 nM

## C/C(=N\N=C(\N)S)c1cccc(Oc2ccccc2)c1
Trypanosoma brucei [2]
  IC50: 6000 nM
[3]
  IC50: 550 nM

## COCCNc1nc(C#N)nc(N(Cc2cccc(C(F)(F)F)c2)C2C3CC4CC(C3)CC2C4)n1 (configuration not stated)
L6
  IC50: 8100 nM
Plasmodium falciparum
  IC50: 1800 nM
[5]
  Ki: 9800 nM
[8]
  IC50: 19600 nM

## N#Cc1nc(N2CCOCC2)nc(N(c2ccccc2F)C2CCCCC2)n1
L6
  IC50: 11400 nM
Plasmodium falciparum
  IC50: > 5000 nM
[5]
  Ki: 25 nM
[8]
  IC50: 15000 nM
Rhodesain
  Ki: 11 nM

## C/C(=N\N=C(\N)S)c1cccc(Br)c1
Trypanosoma brucei [2]
  IC50: > 20000 nM
[3]
  IC50: 50 nM

## CCCCCN(C#N)N(C)C(=O)[C@H](Cc1ccccc1)NC(=O)c1ccc2c(c1)OCCO2
[1]
  IC50: 1.34 nM

## O=C(NC(=S)Nc1ncccc1OCc1ccccc1)c1cccn1S(=O)(=O)c1ccccc1
[3]
  IC50: 3500 nM
Cruzipain
  IC50: 3000 nM

## CCCc1c(NC(=O)Nc2ccc(OC(F)(F)F)cc2)cnn1-c1ccc(Cl)cc1
[3]
  IC50: < 10000 nM
Cruzipain
  IC50: < 10000 nM
